The values below come from paper PMC4320118, “Micheliolide Derivative DMAMCL Inhibits Glioma Cell Growth In Vitro and In Vivo” (PLoS ONE, 2015).

Marks after values point to notes of the source that are not given here.

The subject of series [1] is rat 9L gliosarcomas. Also noted: method as in PMID 21559510. The settings on record: cited from earlier work.
The test system of series [2] is human U251 glioma xenografts. Also noted: method as in PMID 21559510. The settings on record: human U251 glioma xenografts ref 12; cited from earlier work.
The conditions of series [3]: cited from earlier work.
Series [4] relates to primary acute myeloid leukemia (AML) cells. The settings on record: cited from earlier work.
Series [5] deals with intracerebral C6 glioma. How it is done:
Adult Wistar rats (120–180 g, age 4–8 weeks) were obtained from the Animal Center at the Academy of Military Medical Sciences and had animal certification of SCXK (army) 2012–001. Animals were housed in collective cages at a temperature of 23 ± 2°C and relative humidity of 40% to 70%. All rats had free access to food and water.
Intracerebral tumor implantations were performed according to the following procedures. C6 tumors were maintained as subcutaneous tumors in rats. Subcutaneous masses were excised, dissociated, and mixed with matrigel on ice (BD Biosciences) at a ratio of 1:1. After removing of the hair on the skull, a small midline incision in the scalp was gently made under anesthesia with 2% sodium pentobarbital at a dose of 40mg/kg. C6 cells in matrigel (0.1 mL of the cell/matrigel mixture containing 10^8 cells /mL) were carefully injected into the right frontal cortex by a special 16-gauge stainless steel needle with 5 mm needle tubing. Implantation coordinates were determined from Swanson’s Stereotaxic Atlas guidelines (1992): 1.0 mm anterior and 3.0 mm lateral to bregma, at a depth of 5.0 mm from the brain surface. […] The syringe was slowly retracted, the hole was sealed with bone wax, and the incision was sutured under aseptic conditions. […] Then 0.015 mg/kg buprenorphine (s.c.) was administered to relieve the pain. The rats were replaced in cages and allowed to recover from anesthesia.
Rats were divided into the following 5 treatment groups 24 h after surgery (n = 9 rats /group) according to rat weight: 1) vehicle (normal saline: NS); 2) vincristine (VCR) at 100μg/kg; 3) DMAMCL at 25 mg/kg; 4) DMAMCL at 50 mg/kg; and 5) DMAMCL at 100 mg/kg. All drugs were prepared in NS and administered once daily for 21 days. DMAMCL was administered orally, and VCR was injected into the caudal vein. Rats were weighed and monitored for signs of mortality daily. Twenty one days into the treatment, rats were euthanized via CO2 asphyxiation under deep anesthesia by sodium pentobarbital. Brains and tumors were separated from the cerebellum and medulla oblongata, and weighed, photographed, fixed in formalin, and embedded in paraffin for sectioning. The tumor: brain weight ratio was assessed to observe the degree of tumor cell growth in brain. Serial sections (5 μm in thickness) were stained by hematoxylin and eosin (HE).

The test system of series [6] is intracerebral C6 glioma. The experiment in a line: Survival time analysis in C6 intracerebral glioma rats. It counts as in vivo, Wistar rats. Conditions: VCR, treated daily for 21 days. How it is done: C6 tumors were maintained as subcutaneous tumors in rats.
The survival time analyses were performed in C6 intracerebral glioma rats. […] Animals were monitored daily for signs of mortality and weight. Rats were sacrificed when a loss of mobility, lethargy, hemorrhaging around the eyes, or a hunched posture was observed as previously described. The observation time was terminated when all the vehicle rats died. Then the other rats were euthanized by CO2 asphyxiation.

Series [7] has as its system rat 9L gliosarcoma. Also noted: method as in PMID 21727209. Conditions: direct injection into the brain using biodegradable beads, increased from 12.5 days ref 26; cited from earlier work.
Where [8] appears, read: VCR 100μg/kg caudal vein once daily for 21 days.

For the compound `C=CCc1ccc(O)c(-c2ccc(O)c(CC=C)c2)c1` [Honokiol], the “Increase of survival compared to controls” value in series [1] is 5 days. The “Reduction of tumor volume” value in series [1] (rat 9L gliosarcomas ref 12) is reported as 52.77%; in series [2], 50.21%.

As for `C=C1C(=O)O[C@H]2[C@H]1CCC(C)=C1CC[C@@](C)(O)[C@@H]12` [MCL, micheliolide], the “Stability compared with PTL” value in series [3] is “more stable than PTL”. Besides, in series [4], the “Number of colony-forming units of primary AML cells” value is given as “greatly reduced the number of colony-forming units”.

Take `C=C1C(=O)O[C@H]2[C@H]1CC/C(C)=C/CC[C@@]1(C)O[C@@H]21` [PTL, Parthenolide]: the Stability result in series [3] (acidic and basic conditions ref 15) was “unstable under both acidic and basic conditions”.

Turning to `CC[C@]1(O)C[C@H]2CN(CCc3c([nH]c4ccccc34)[C@@](C(=O)OC)(c3cc4c(cc3OC)N(C=O)[C@H]3[C@@](O)(C(=O)OC)[C@H](OC(C)=O)[C@]5(CC)C=CCN6CC[C@]43[C@@H]65)C2)C1` [VCR, vincristine, reference compound], the “Deaths during the 21-day study” value in series [5] (VCR 100μg/kg caudal vein once daily) is reported as “One rat died on day 18”. Also, in series [5] (setting [8]), the “Inhibition (percent decrease in tumor weight compared to the vehicle group)” value worked out at 81.6%, the Tumor weight is 0.13 ± 0.07 g and the Tumor/brain was 6.5 ± 2.6 %. Also, in series [5] (VCR 100μg/kg, 21 days), the “Histopathology of brain tissue (HE)” value is given as “appeared similar to normal brain tissues”. In series [6], the “Median survival of deceased animals” value is 24 days, the “Time of death End” value stood at 57 days and the “Time of death Start” value amounted to 23 days. In addition, the “Survival (# of rats) End” value in series [6] (63 days, n = 10) is reported as 7 # of rats. The Survival in series [6] (at 63 days) is 70 ^*** %. In series [6] (observation 63 days), this compound returned a Mean survival of 54.5 ± 16.4 days and a Median survival of 63 days.

With `CO[C@H]1C[C@@H]2CC[C@@H](C)[C@@](O)(O2)C(=O)C(=O)N2CCCC[C@H]2C(=O)O[C@H]([C@H](C)C[C@@H]2CC[C@@H](O)[C@H](OC)C2)CC(=O)[C@H](C)/C=C(\C)[C@@H](O)[C@@H](OC)C(=O)[C@H](C)C[C@H](C)/C=C/C=C/C=C/1C` [rapamycin, Rapamycin], the Survival in series [7] is given as 29 days.
